Legend:
[1] = system: MMTV; type: cell-based, mouse
[2] = system: L1210/L-PAM leukemia cells; set-up: species or system BDF1 mice; settings: mouse, in vivo
[3] = system: C-type virus; assay: Monitoring of treated MJY-alpha cells for induction of C-type virus; type: cell-based; settings: 0.5 to 48 hour pulse or 8 months culture in the tripeptide
Text: The possible multifocal action of this antitumor tripeptide was a concern during examination of this compound. Since virus particles obtained by induction are infectious and oncogenic, PTT.119-treated cells were monitored for the presence of C-type virus. […] In addition, no diminution of the inhibitory effect of PTT.119 or enhancement of B-type retrovirus production was observed under these conditions.

[4] = system: 5-78 T-lymphoma; assay: Tumor cell survival (trypan blue), continuous exposure; type: cell-based, Rabbit
[5] = system: L-1210 leukemia cell suspensions; assay: as above; type: cell-based, Mouse; settings: for Percent Tumor Cell Survival / % tumor cell survival: L-1210; for Percent Tumor Cell Survival: treated 24 hr
[6] = system: Hairy cell leukemia; assay: Survival of fresh human leukemic cells, continuous exposure; type: cell-based
[7] = system: L-1210 leukemia cells; assay: Bioassay of tumorigenicity of in vitro treated tumor cells in syngeneic hosts; type: in vivo; settings: BDf1 mice surviving 45 days

Structure (SMILES): CCOC(=O)[C@H](CCSC)NC(=O)[C@H](Cc1cccc(N(CCCl)CCCl)c1)NC(=O)[C@@H](N)Cc1ccc(F)cc1.Cl [PTT.119, 3-(p-fluorophenyl)-L-alanyl-3-[m-bis(2-chloroethyl)aminophenyl]-L-alanyl-L-methionine ethyl ester hydrochloride]
- less MMTV produced compared to controls (labeled uridine) [1]: 37%
- reduction of MMTV replication [1]: 27%
- reduction of viral replication (labeled uridine) [1]: 42%
- tumorigenicity of L1210/L-PAM cells [2]: Complete abrogation
- endogenous (C-type) virus production [3]: no detection of any endogenous virus production
- % tumor cell survival ([4]; 5 ug/ml, 1 hr): 100%
- % tumor cell survival ([4]; 5 ug/ml, 4 hr): 88%
- % tumor cell survival ([4]; 5 ug/ml, 24 hr): 66%
- % tumor cell survival ([4]; 10 ug/ml, 1 hr): 89%
- % tumor cell survival ([4]; 10 ug/ml, 4 hr): 61%
- % tumor cell survival ([4]; 10 ug/ml, 24 hr): 49%
- % tumor cell survival ([4]; 25 ug/ml, 1 hr): 75%
- % tumor cell survival ([4]; 25 ug/ml, 4 hr): 32%
- % tumor cell survival ([4]; 25 ug/ml, 8 hr): 14%
- % tumor cell survival ([4]; 25 ug/ml, 24 hr): 6%
- % tumor cell survival ([4]; 50 ug/ml, 1 hr): 57%
- % tumor cell survival ([4]; 50 ug/ml, 4 hr): 4%
- % tumor cell survival ([4]; 50 ug/ml, 24 hr): 2%
- Percent Tumor Cell Survival ([5]; 0.1 ug/ml): 82%
- % tumor cell survival ([5]; 1 ug/ml, 1 hr exposure): 95%
- % tumor cell survival ([5]; 1 ug/ml, 8 hr): 100%
- % tumor cell survival ([5]; 1 ug/ml, 24 hr): 65%
- Percent Tumor Cell Survival ([5]; 1 ug/ml): 70%
- % tumor cell survival ([5]; 5 ug/ml, 1 hr): 100%
- % tumor cell survival ([5]; 5 ug/ml, 4 hr): 84%
- % tumor cell survival ([5]; 5 ug/ml, 24 hr): 57%
- Percent Tumor Cell Survival ([5]; 5 ug/ml): 62%
- % tumor cell survival ([5]; 10 ug/ml, 1 hr): 92%
- % tumor cell survival ([5]; 10 ug/ml, 4 hr): 75%
- % tumor cell survival ([5]; 10 ug/ml, 24 hr): 12%
- Percent Tumor Cell Survival ([5]; 10 ug/ml): 28%
- % tumor cell survival ([5]; 25 ug/ml, 1 hr): 50%
- % tumor cell survival ([5]; 25 ug/ml, 4 hr): 25%
- % tumor cell survival ([5]; 25 ug/ml, 8 hr): 15%
- % tumor cell survival ([5]; 25 ug/ml, 24 hr): 0%
- Percent Tumor Cell Survival ([5]; 25 ug/ml): 6%
- decrease in leukemia cell survival ([5]; continuous 24 hr exposure, all concentrations tested (0.1 to 50 ug/ml)): 18-94%
- % tumor cell survival ([6]; 5 ug/ml, 1 hr): 100%
- % tumor cell survival ([6]; 5 ug/ml, 4 hr): 80%
- % tumor cell survival ([6]; 5 ug/ml, 24 hr): 34%
- % tumor cell survival ([6]; 10 ug/ml, 1 hr): 100%
- % tumor cell survival ([6]; 10 ug/ml, 4 hr): 71%
- % tumor cell survival ([6]; 10 ug/ml, 24 hr): 81%
- % tumor cell survival ([6]; 25 ug/ml, 1 hr): 92%
- % tumor cell survival ([6]; 25 ug/ml, 4 hr): 71%
- % tumor cell survival ([6]; 25 ug/ml, 24 hr): 12%
- % tumor cell survival ([6]; 50 ug/ml, 1 hr): 37%
- % tumor cell survival ([6]; 50 ug/ml, 4 hr): 21%
- % tumor cell survival ([6]; 50 ug/ml, 24 hr): 7%
- protection of surviving hosts against second graft of 1000 untreated L-1210 cells [7]: did not confer protection

From patent US4740501A (priority 1985, dated 1988)
